Source: ChEMBL document CHEMBL5528047, “A Potent SOS1 PROTAC Degrader with Synergistic Efficacy in Combination with KRASG12C Inhibitor” (J Med Chem, 2024)
Active and inactive are the calls of the source. The calls are words filed in the database; no cut-off is given here.

Assays:
[1] = tested on: NCI-H358; assay: Inhibition of ERK phosphorylation in human NCI-H358 cells at 1 uM measured after 24 to 72 hrs in presence of AMG510 by Western blotting analysis; type: cell-based; details: time 24-72 hrs
[2] = tested on: MIA PaCa-2; assay: Antiproliferative activity against human MIA PaCa-2 cells incubated for 6 days by CCK8 assay; type: functional, cell-based; details: MIA PaCa-2, 144 h
[3] = target: T1, von Hippel-Lindau disease tumor suppressor/Son of sevenless homolog 1 (Homo sapiens, UniProt Q07889+P40337); assay: Protac activity at VHL/SOS1 in human MIA PaCa-2 cells assessed as SOS1 degradation at 1 uM incubated for 96 hrs by Western blotting analysis; type: cell-based
Target sequence in this assay (P40337 whole entry, looked up): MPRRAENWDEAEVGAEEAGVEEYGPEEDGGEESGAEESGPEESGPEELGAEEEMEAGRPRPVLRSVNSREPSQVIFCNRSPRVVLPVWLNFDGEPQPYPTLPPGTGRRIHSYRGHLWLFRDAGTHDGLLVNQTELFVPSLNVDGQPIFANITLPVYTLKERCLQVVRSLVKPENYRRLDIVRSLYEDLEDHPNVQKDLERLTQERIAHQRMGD
Target sequence in this assay (Q07889 whole entry, looked up): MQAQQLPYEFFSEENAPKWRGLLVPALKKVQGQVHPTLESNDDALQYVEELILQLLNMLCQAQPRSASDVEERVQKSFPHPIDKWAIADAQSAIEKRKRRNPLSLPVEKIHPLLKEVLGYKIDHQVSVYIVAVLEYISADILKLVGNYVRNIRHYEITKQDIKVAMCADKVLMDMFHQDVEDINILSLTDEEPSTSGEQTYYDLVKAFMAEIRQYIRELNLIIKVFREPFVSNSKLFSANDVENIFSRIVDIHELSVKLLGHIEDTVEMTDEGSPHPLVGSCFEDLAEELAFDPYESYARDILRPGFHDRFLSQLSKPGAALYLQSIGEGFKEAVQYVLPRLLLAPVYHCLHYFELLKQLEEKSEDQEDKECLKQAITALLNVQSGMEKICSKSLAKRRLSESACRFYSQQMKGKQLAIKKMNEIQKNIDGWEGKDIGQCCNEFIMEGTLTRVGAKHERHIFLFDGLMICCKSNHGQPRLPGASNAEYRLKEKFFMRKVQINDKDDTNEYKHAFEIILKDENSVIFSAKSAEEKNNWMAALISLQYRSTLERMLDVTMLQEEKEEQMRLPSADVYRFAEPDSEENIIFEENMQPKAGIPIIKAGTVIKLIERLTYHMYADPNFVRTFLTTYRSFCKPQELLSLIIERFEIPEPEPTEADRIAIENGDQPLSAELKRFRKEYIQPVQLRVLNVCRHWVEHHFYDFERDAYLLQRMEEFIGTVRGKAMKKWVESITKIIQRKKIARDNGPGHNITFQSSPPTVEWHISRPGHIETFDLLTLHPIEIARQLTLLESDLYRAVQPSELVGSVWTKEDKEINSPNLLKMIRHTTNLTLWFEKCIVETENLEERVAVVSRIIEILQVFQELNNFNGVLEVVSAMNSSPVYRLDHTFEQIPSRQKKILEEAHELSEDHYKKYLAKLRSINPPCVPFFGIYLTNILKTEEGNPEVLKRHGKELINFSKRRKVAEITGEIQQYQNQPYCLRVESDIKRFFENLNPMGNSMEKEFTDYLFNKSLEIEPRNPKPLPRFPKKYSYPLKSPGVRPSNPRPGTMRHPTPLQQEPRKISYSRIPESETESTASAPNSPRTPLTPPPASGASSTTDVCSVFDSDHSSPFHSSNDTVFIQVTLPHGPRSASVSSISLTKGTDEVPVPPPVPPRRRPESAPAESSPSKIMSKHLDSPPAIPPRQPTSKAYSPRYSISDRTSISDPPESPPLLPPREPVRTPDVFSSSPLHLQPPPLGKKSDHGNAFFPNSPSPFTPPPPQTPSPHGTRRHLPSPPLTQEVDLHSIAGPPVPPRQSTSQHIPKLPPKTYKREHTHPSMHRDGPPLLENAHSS

[4] = tested on: SW837; assay: Antiproliferative activity against human SW837 cells incubated for 6 days by CCK8 assay; type: functional, cell-based; details: SW837, 144 h
[5] = target: T1, von Hippel-Lindau disease tumor suppressor/Son of sevenless homolog 1; assay: Protac activity at VHL/SOS1 in human PANC-1 cells assessed as maximum SOS1 degradation at 0.003 to 10 uM incubated for 24 hrs by Western blotting analysis; type: cell-based; details: dose 0.003-10 µM
Target sequence in this assay (P40337 whole entry, looked up): as the sequence (P40337 whole entry, looked up) above
Target sequence in this assay (Q07889 whole entry, looked up): as the sequence (Q07889 whole entry, looked up) above

[6] = tested on: NCI-H358; assay: Antiproliferative activity against human NCI-H358 cells incubated for 6 days by CCK8 assay; type: functional, cell-based; details: NCI-H358, 144 h
[7] = tested on: Mus musculus; assay: In vivo induction of SOS1 degradation in human K562 cells xenografted in NOD-SCID mouse assessed as reduction in SOS1 level at 25 mg/kg, ip measured after 24 hrs by immunoblotting analysis; type: functional, organism-based
[8] = target: T1, von Hippel-Lindau disease tumor suppressor/Son of sevenless homolog 1; assay: Protac activity at VHL/SOS1 in human MIA PaCa-2 cells assessed as SOS1 degradation at 1 uM preincubated with MLN4924 for 2 hrs followed by compound addition and measured after 3 hrs by Western blotting analysis; type: cell-based
Target sequence in this assay (P40337 whole entry, looked up): as the sequence (P40337 whole entry, looked up) above
Target sequence in this assay (Q07889 whole entry, looked up): as the sequence (Q07889 whole entry, looked up) above

[9] = tested on: K562; assay: Antitumor activity against human K562 cells xenografted in NOD-SCID mouse assessed as tumor growth inhibition at 5 mg/kg, ip administered as 5 days on and 2 days off schedule for 21 days; type: functional; details: K562, 120 h, time 5 day, read-out: TGI
[10] = target: T1, von Hippel-Lindau disease tumor suppressor/Son of sevenless homolog 1; assay: Protac activity at VHL/SOS1 in human MIA PaCa-2 cells assessed as SOS1 degradation at 1 uM preincubated with MG132 for 2 hrs followed by compound addition and measured after 3 hrs by Western blotting analysis; type: cell-based
Target sequence in this assay (P40337 whole entry, looked up): as the sequence (P40337 whole entry, looked up) above
Target sequence in this assay (Q07889 whole entry, looked up): as the sequence (Q07889 whole entry, looked up) above

[11] = target: T1, von Hippel-Lindau disease tumor suppressor/Son of sevenless homolog 1; assay: Protac activity at VHL/SOS1 in human K562 cells assessed as SOS1 degradation incubated for 24 hrs by Western blotting analysis; type: cell-based
[12] = tested on: K562; assay: Antitumor activity against human K562 cells xenografted in NOD-SCID mouse assessed as tumor growth inhibition at 25 mg/kg, ip administered as 5 days on and 2 days off schedule for 21 days; type: functional; details: K562, 120 h, time 5 day, read-out: TGI
[13] = tested on: NCI-H358; assay: Antitumor activity against human NCI-H358 cells xenografted in BALB/c mouse assessed as tumor growth inhibition at 30 mg/kg, ip administered once daily for 28 days in presence of 10 mg/kg 4-((S)-4-acryloyl-2-methylpiperazin-1-yl)-6-fluoro-7-(2-fluoro-6-hydroxyphenyl)-1-(2-isopropyl-4-methylpyridin-3-yl)pyrido[2,3-d]pyrimidin-2(1H)-one; type: functional; details: NCI-H358, 672 h, time 28 day, read-out: TGI
[14] = target: T1, von Hippel-Lindau disease tumor suppressor/Son of sevenless homolog 1; assay: Protac activity at VHL/SOS1 in human MIA PaCa-2 cells assessed as SOS1 degradation at 1 uM preincubated with VHL ligand V1 for 2 hrs followed by compound addition and measured after 3 hrs by Western blotting analysis; type: cell-based
Target sequence in this assay (P40337 whole entry, looked up): as the sequence (P40337 whole entry, looked up) above
Target sequence in this assay (Q07889 whole entry, looked up): as the sequence (Q07889 whole entry, looked up) above

[15] = tested on: K562; assay: Downregulation of phosphorylated-MEK level in human K562 cells at 0.3 to 3 uM incubated for 24 hrs by Western blotting analysis; type: functional, cell-based; details: dose 0.3-3 µM
[16] = tested on: K562; assay: Downregulation of phosphorylated-ERK level in human K562 cells at 0.3 to 3 uM incubated for 24 hrs by Western blotting analysis; type: functional, cell-based; details: dose 0.3-3 µM
[17] = tested on: NCI-H358; assay: Antitumor activity against human NCI-H358 cells xenografted in BALB/c mouse assessed as tumor growth inhibition at 30 mg/kg, ip administered once daily for 28 days; type: functional; details: NCI-H358, 672 h, time 28 day, read-out: TGI
[18] = target: T1, von Hippel-Lindau disease tumor suppressor/Son of sevenless homolog 1; assay: Protac activity at VHL/SOS1 in human K562 cells assessed as SOS1 degradation at 1 uM preincubated with VHL ligand V1 for 2 hrs followed by compound addition and measured after 2 hrs by Western blotting analysis; type: cell-based
Target sequence in this assay (P40337 whole entry, looked up): as the sequence (P40337 whole entry, looked up) above
Target sequence in this assay (Q07889 whole entry, looked up): as the sequence (Q07889 whole entry, looked up) above

[19] = target: T1, von Hippel-Lindau disease tumor suppressor/Son of sevenless homolog 1; assay: Protac activity at VHL/SOS1 in human K562 cells assessed as SOS1 degradation at 1 uM by Western blotting analysis relative to control; type: cell-based

Which inhibition [1] does the source give for COc1cc2nc(C)nc(N[C@H](C)c3cc(N)cc(C(F)(F)F)c3)c2cc1OCCCCC(=O)N[C@H](C(=O)N1C[C@H](O)C[C@H]1C(=O)NCc1ccc(-c2scnc2C)cc1)C(C)(C)C here?
The inhibition was “Active”.

What about the IC50 [2] of the same compound?
Its IC50 is 3.48 µM.

What about the Activity [3] of the same compound?
Its Activity is “Active”.

What about the IC50 [4] of the same compound?
Its IC50 is 1.03 µM.

And the Emax [5]?
The Emax was greater than 90%.

And the IC50 [6]?
Its IC50 is 2.45 µM.

What about the Activity [7] of the same compound?
The Activity was “Active”.

What about the Activity [8] of the same compound?
Its Activity is “inactive”.

And the inhibition in vivo at 5 mg/kg [9]?
Its inhibition in vivo at 5 mg/kg is 56.3%.

And the Activity [10]?
The Activity was “inactive”.

What about the Activity [11] of the same compound?
The Activity was “Dose-Dependent Effect”.

What about the DC50 [11] of the same compound?
The DC50 was 0.13 µM.

What about the inhibition in vivo at 25 mg/kg [12] of the same compound?
The inhibition in vivo at 25 mg/kg was 72.3%.

And the inhibition in vivo at 30 mg/kg [13]?
The inhibition in vivo at 30 mg/kg was 78.8%.

And the Activity [14]?
Its Activity is “inactive”.

What about the Activity [15] of the same compound?
The Activity was “Active”.

And the Activity [16]?
The Activity was “Active”.

What about the inhibition in vivo at 30 mg/kg [17] of the same compound?
The inhibition in vivo at 30 mg/kg was 11.4%.

And the Activity [18]?
Its Activity is “inactive”.

And the Activity [19]?
The Activity was 89.8%.
